Measurements from patent publication US20250304571A1, “BIOLOGICALLY ACTIVE COMPOUNDS AND METHODS THEREOF” (Suzhou Keen Therapeutics Co., Ltd., priority 2022, published 2025).
Where two headings read alike, the source gives them in different places.

Tested on: 786-O (renal cell carcinoma) cells
Test: Cell viability (CellTiter Glo) assay, inhibition of 786-O cell proliferation
Type: cell-based
Conditions: read-out: IC50, inhibition of 786-O cell proliferation
[1] = Homo sapiens, 786-0, 786-O cells, 72 hours, CellTiter Glo
[2] = 786-O cells, 72 hours, CellTiter Glo

SMILES	IC50 [1] [nM]	also measured
CC(C)N(CC(F)(F)F)C(=N)OCc1nc(Cl)c2c(n1)N(c1ccc(OC3CCCCC3)nc1)C(=O)C2(C)C [Compound E158, (4-chloro-7-(6-(cyclohexyloxy)pyridin-3-yl)-5,5-dimethyl-6-oxo-6,7-dihydro-5H-pyrrolo[2,3-d]pyrimidin-2-yl)methyl isopropyl(2,2,2-trifluoroethyl)carbamimidate]	500 to 5000	
CC(C)N(CC(F)(F)F)C(=N)OCc1ncc2c(n1)N(c1ccc(C3CCCCC3)cc1)C(=O)C21CC1 [Compound E159]	100 to 500	
CC(C)N(CC(F)(F)F)C(=N)OCc1ncc2c(n1)N(c1ccc(C3CCCCC3)nc1)C(=O)C21CC1 [Compound E160]	500 to 5000	
CCCCOc1ccc(N2C(=O)C3(CC3)c3cnc(COC(=N)N(CC(F)(F)F)C(C)C)nc32)cc1 [Compound E161]	100 to 500	
CC(C)N(CC(F)(F)F)C(=N)OCc1ncc2c(n1)N(c1ccc(N3CCOCC3)cc1)C(=O)C21CC1 [Compound E162]	500 to 5000	
CC(C)N(CC(F)(F)F)C(=N)OCc1ncc2c(n1)N(c1ccc(N3CCCCC3)cc1)C(=O)C21CC1 [Compound E163]	100 to 500	
CCCCCCOc1ccc(N2C(=O)C3(CC3)c3cnc(COC(=N)N(CC(F)(F)F)C(C)C)nc32)cc1 [Compound E164]	< 100	
CC(C)N(CC(F)(F)F)C(=N)OCc1ncc2c(n1)N(c1ccc(O)cc1)C(=O)C21CC1 [Compound E165]	> 5000	
CC(C)N(CC(F)(F)F)C(=N)OCc1nc(N)c2c(n1)N(c1ccc(OC3CCCCC3)nc1)C(=O)C2(C)C [Compound E167]	< 100	
CNc1nc(COC(=N)N(C)C2COC2)nc2c1C(C)(C)C(=O)N2c1ccc(OC2CCCCC2)cc1 [Compound E169]	100 to 500	
CNc1nc(COC(=N)N2CCCCC2C(F)(F)F)nc2c(-c3ccc(N4CCOCC4)cc3OC)csc12 (centres unmarked) [Compound E171]	< 100	
CC1(C)C(=O)N(c2ccc(N3CCOCC3)cc2)c2nc(COC(=N)N3CCCCC3C(F)(F)F)nc(N)c21 (centres unmarked) [Compound E172]		IC50 [2]: < 100 nM
CC(C)Nc1nc(COC(=N)N2CCCC2C(F)(F)F)nc2c1C(C)(C)C(=O)N2c1ccc(N2CCOCC2)cc1 (centres unmarked) [Compound E176, (4-(Isopropylamino)-5,5-dimethyl-7-(4-morpholinophenyl)-6-oxo-6,7-dihydro-5H-pyrrolo[2,3-d]pyrimidin-2-yl)methyl 2-(trifluoromethyl)pyrrolidine-1-carbimidate]		IC50 (Homo sapiens, 786-0, 72 h): < 100 nM
CNc1nc(COC(=N)N2CCCC2C(F)(F)F)nc2c(-c3ccc(N4CCOCC4)cc3)csc12 (centres unmarked) [Compound E179, (4-(Methylamino)-7-(4-morpholinophenyl)thieno[3,2-d]pyrimidin-2-yl)methyl 2-(trifluoromethyl)pyrrolidine-1-carbimidate]	< 100	
CNc1nc([C@H](C)OC(=N)N2CCC[C@@H]2C(F)(F)F)nc2c1C(C)(C)C(=O)N2c1ccc(N2CCOCC2)cc1 [Compound E180]		IC50 [2]: > 5000 nM
CNc1nc([C@@H](C)OC(=N)N2CCC[C@@H]2C(F)(F)F)nc2c1C(C)(C)C(=O)N2c1ccc(N2CCOCC2)cc1 [Compound E181]		IC50 [2]: > 5000 nM
CNc1nc(COC(=N)N2CCCC2C(F)(F)F)nc2c1C(C)(C)C(=O)N2c1ccc2c(c1)CCCO2 (centres unmarked) [Compound E182]		IC50 [2]: < 100 nM
CNc1nc(COC(=N)N2CCC[C@@H]2C(F)(F)F)nc2c(-c3ccc(N4CCOCC4)cc3OC)coc12 [Compound E184, (7-(2-Methoxy-4-morpholinophenyl)-4-(methylamino)furo[3,2-d]pyrimidin-2-yl)methyl (R)-2-(trifluoromethyl)pyrrolidine-1-carbimidate]	< 100	
N=C(OCc1nc(NC2CC2)c2c(n1)N(c1ccc(N3CCOCC3)c(F)c1)C(=O)C21CCCC1)N1CCC[C@@H]1C(F)(F)F [Compound E198]	< 100	
N=C(OCc1nc(C(F)F)c2c(n1)N(c1ccc(N3CCOCC3)cc1)C(=O)C21CCCC1)N1CCC[C@@H]1C(F)(F)F [Compound E199]	500 to 5000	
N=C(OCc1nc2c(c(C(F)(F)F)n1)C1(CCCC1)C(=O)N2c1ccc(N2CCOCC2)cc1)N1CCC[C@@H]1C(F)(F)F [Compound E202]	500 to 5000	
C[C@@H]1CN(c2ccc(N3C(=O)C(C)(C)c4c(NCC(F)F)nc(COC(=N)N5CCC[C@@H]5C(F)(F)F)nc43)cc2)C[C@H](C)O1 [Compound E203]		IC50 (Homo sapiens, 786-0, 72 h): 100 to 500 nM
N=C(OCc1nc(NC2CC2)c2c(n1)N(c1cnc(N3CCCCC3)nc1)C(=O)C21CCCC1)N1CCC[C@@H]1C(F)(F)F [Compound E204]	< 100	
N=C(OCc1nc(NC2CC2)c2c(n1)N(c1ccc(F)c(F)c1)C(=O)C21CCCC1)N1CCC[C@@H]1C(F)(F)F [Compound E205]	< 100	
N=C(OCc1nc(NC2CC2)c2c(n1)N(c1cc(F)cc(F)c1)C(=O)C21CCCC1)N1CCC[C@@H]1C(F)(F)F [Compound E206]		IC50 [2]: 100 to 500 nM
COc1cc(F)ccc1N1CC(C)(C)c2c(NC3CC3)nc(COC(=N)N3CCC[C@@H]3C(F)(F)F)nc21 [Compound E207]	< 100	
COc1cc(F)ccc1N1CC(C)(C)c2c(NCC(F)(F)F)nc(COC(=N)N3CCC[C@@H]3C(F)(F)F)nc21 [Compound E208]	< 100	
N=C(OCc1nc(N)c2c(n1)N(c1ccc(F)c(F)c1)C(=O)C21CCCC1)N1CCC[C@@H]1C(F)(F)F [Compound E209]	< 100	
CC(C)Nc1nc(COC(=N)N2CCC[C@@H]2C(F)(F)F)nc2c1C1(CCCC1)C(=O)N2c1cnc(N2CCCCC2)nc1 [Compound E211]		IC50 (Homo sapiens, 786-0, 72 h): < 100 nM

Now from value to compound, other results behind:

IC50 [1] [nM]	SMILES	also measured
< 100	CNc1nc(COC(=N)N(CC(F)(F)F)C(C)C)nc2c1C1(CC1)C(=O)N2c1ccc(N2CCCCC2)nc1 [Compound E166]	
< 100	CNc1nc(COC(=N)N(CC(F)(F)F)C(C)C)nc2c1C(C)(C)C(=O)N2c1ccc(OC2CCCCC2)nc1 [Compound E168]	
< 100	CC1(C)C(=O)N(c2ccc(N3CCOCC3)cc2)c2nc(COC(=N)N3CCCC3C(F)(F)F)nc(N)c21 (centres unmarked) [Compound E170]	
< 100	CNc1nc(COC(=N)N2CCCC2C(F)(F)F)nc2c1C(C)(C)C(=O)N2c1ccc(OC2CCCCC2)cc1 (centres unmarked) [Compound E173]	
< 100	CNc1nc(COC(=N)N2CCCCC2C(F)(F)F)nc2c1C(C)(C)C(=O)N2c1ccc(OC2CCCCC2)cc1 (centres unmarked) [Compound E174]	
< 100	CCNc1nc(COC(=N)N2CCCC2C(F)(F)F)nc2c1C(C)(C)C(=O)N2c1ccc(N2CCOCC2)cc1 (centres unmarked) [Compound E175]	
100 to 500	CNc1nc(COC(=N)N2CCC[C@H]2C(F)(F)F)nc2c1C(C)(C)C(=O)N2c1ccc(N2C[C@@H](C)O[C@@H](C)C2)nc1 [Compound E183]	
< 100	CNc1nc(COC(=N)N2CCC[C@@H]2C(F)(F)F)nc2c1C(C)(C)C(=O)N2c1ccc2c(c1)CCCO2 [Compound E185]	
< 100	C[C@@H]1CN(c2ccc(N3C(=O)C(C)(C)c4c(N)nc(COC(=N)N5CCC[C@@H]5C(F)(F)F)nc43)cn2)C[C@H](C)O1 [Compound E186, (4-amino-7-(6-((2S,6R)-2,6-dimethylmorpholino)pyridin-3-yl)-5,5-dimethyl-6-oxo-6,7-dihydro-5H-pyrrolo[2,3-d]pyrimidin-2-yl)methyl (R)-2-(trifluoromethyl)pyrrolidine-1-carbimidate]	
100 to 500	[2H]C([2H])([2H])Nc1nc(COC(=N)N2CCC[C@@H]2C(F)(F)F)nc2c1C(C)(C)C(=O)N2c1ccc(N2C[C@@H](C)O[C@@H](C)C2)nc1 [Compound E187, (7-(6-((2S,6R)-2,6-Dimethylmorpholino)pyridin-3-yl)-5,5-dimethyl-4-((methyl-d3)amino)-6-oxo-6,7-dihydro-5H-pyrrolo[2,3-d]pyrimidin-2-yl)methyl (R)-2-(trifluoromethyl)pyrrolidine-1-carbimidate]	
< 100	C[C@@H]1CN(c2ccc(N3C(=O)C(C)(C)c4c(NC5CC5)nc(COC(=N)N5CCC[C@@H]5C(F)(F)F)nc43)cn2)C[C@H](C)O1 [Compound E188, (4-(Cyclopropylamino)-7-(6-((2S,6R)-2,6-dimethylmorpholino)pyridin-3-yl)-5,5-dimethyl-6-oxo-6,7-dihydro-5H-pyrrolo[2,3-d]pyrimidin-2-yl)methyl (R)-2-(trifluoromethyl)pyrrolidine-1-carbimidate]	
100 to 500	C[C@@H]1CN(c2ccc(N3C(=O)C(C)(C)c4c(N)nc(COC(=N)N(C)CC(F)(F)F)nc43)cn2)C[C@H](C)O1 [Compound E189, (4-amino-7-(6-((2R,6S)-2,6-dimethylmorpholino)pyridin-3-yl)-5,5-dimethyl-6-oxo-6,7-dihydro-5H-pyrrolo[2,3-d]pyrimidin-2-yl)methyl methyl(2,2,2-trifluoroethyl)carbamimidate]	
100 to 500	CCN(CC(F)(F)F)C(=N)OCc1nc(N)c2c(n1)N(c1ccc(N3C[C@@H](C)O[C@@H](C)C3)nc1)C(=O)C2(C)C [Compound E190]	
100 to 500	CC(C)N(CC(F)(F)F)C(=N)OCc1nc(N)c2c(n1)N(c1ccc(N3C[C@@H](C)O[C@@H](C)C3)nc1)C(=O)C2(C)C [Compound E191]	
100 to 500	C#CCN(CC(F)(F)F)C(=N)OCc1nc(N)c2c(n1)N(c1ccc(N3C[C@@H](C)O[C@@H](C)C3)nc1)C(=O)C2(C)C [Compound E192]	
100 to 500	C[C@@H]1CN(c2ccc(N3C(=O)C(C)(C)c4c(N)nc(COC(=N)N(CC(F)(F)F)C5CC5)nc43)cn2)C[C@H](C)O1 [Compound E193]	
100 to 500	CNc1nc(COC(=N)N2CCC[C@@H]2C(F)(F)F)nc2c(-c3ccc(N4C[C@@H](C)O[C@@H](C)C4)nc3)coc12 [Compound E194]	
100 to 500	C[C@@H]1CN(c2ccc(N3C(=O)C(C)(C)c4c(N)nc(COC(=N)N5CC(F)(F)C(F)(F)C5)nc43)cn2)C[C@H](C)O1 [Compound E195]	
< 100	CC1(C)C(=O)N(c2ccc(N3CCOCC3)cc2)c2nc(COC(=N)N3CCC[C@@H]3C(F)(F)F)nc(NCC(F)F)c21 [Compound E197]	
< 100	CC1(C)C(=O)N(c2ccc(N3CCOCC3)c(F)c2)c2nc(COC(=N)N3CCC[C@@H]3C(F)(F)F)nc(NC3CC3)c21 [Compound E200]	
< 100	CCCNc1nc(COC(=N)N2CCC[C@@H]2C(F)(F)F)nc2c1C(C)(C)C(=O)N2c1ccc(N2CCOCC2)cc1 [Compound E201]	
